Experimental data taken from patent publication US10294217B2, “Fluoroindole derivatives as muscarinic M1 receptor positive allosteric modulators” (Suven Life Sciences Limited, priority 2015, dated 2019).
Like-named read-outs stand apart in the source and are kept apart here.

Assays:
[1] = target: human Muscarinic M1 receptor (Homo sapiens (Human), UniProt P11229); test: Allosteric potency EC50 for muscarinic M1 receptor (CHO cells, pCRE-Luc reporter); format: cell-based; conditions: luciferase activity, 4 hours
Experimental: Determination of Allosteric Potency EC50 Values for Muscarinic M1 Receptor:
A stable CHO cell line expressing recombinant human Muscarinic M1 receptor and pCRE-Luc reporter system was used for cell-based assay. The assay offers a non-radioactive based approach to determine binding of a compound to GPCRs. In this specific assay, the level of intracellular cyclic AMP which is modulated by activation or inhibition of the receptor is measured. The recombinant cells harbor luciferase reporter gene under the control of cAMP response element.
The above cells were grown in 96 well clear bottom white plates in Hams F12 medium containing 10% fetal bovine serum (FBS). Prior to the addition of compounds or standard agonist, cells were serum starved overnight. Increasing concentrations of test compounds were added along with EC20 of acetylcholine in OptiMEM medium to the cells. The incubation was continued at 37° C. in CO2 incubator for 4 hours. Medium was removed and cells were washed with phosphate buffered saline. The cells were lysed and luciferase activity was measured in a Luminometer. Luminescence units were plotted against the compound concentrations using Graphpad software. EC50 values of the compounds were defined as the concentration required in stimulating the luciferase activity by 50% in presence of EC20 of acetylcholine and the results are provided in table 1.

[2] = Protein binding assay (HT dialysis), dog matrices; format: in vitro ADME; conditions: Mean ± SEM
Experimental: Unbound fractions of new chemical entities in plasma, brain homogenate and liver microsomes were determined using high-throughput dialysis (HT dialysis). Briefly, dialysis membranes were soaked in deionized water for 20 minutes and then in deionized water with 30% ethanol for 15 minutes and finally in phosphate buffer until use. Membranes were rinsed in phosphate buffer before assembling. The membranes were layered between teflon bars of dialysis assembly. Stock solutions of test compounds were prepared at 10 mM in DMSO, diluted to 1 mM in acetonitrile and further diluted to 100 μM in mixture of water and acetonitrile (1:1 v/v). Human plasma (pool of 3) was prepared from human blood (3 donors) by centrifuging at 4000 rpm for 10 min at 4° C. Rat and dog blood were obtained on the day of the study and centrifuged to obtain plasma. Rat brains were isolated, cleaned and homogenized with 2 volumes of buffer (3 fold dilution). Liver microsomes were prepared at 0.5 mg/mL in phosphate buffer (100 mM, pH 7.4). The dialysate chambers were loaded with 150 μL of 100 mM phosphate buffer (pH 7.4) in triplicates. The matrix chambers were loaded with 150 μL of the plasma or brain homogenate or microsomal suspension spiked with test compounds at a final concentration of 1 μM. 50 μL of the sample was removed from both the chambers at 0 h. The plate was sealed and incubated at 37° C. for 6 h at 100 rpm. After 6 h, 50 μL of the sample was removed from both the chambers. Equal volumes of buffer or human plasma/microsomal suspension were added to the plasma/microsomal and buffer samples respectively to create identical sample matrices for analysis. The samples were precipitated with 150 μL of acetonitrile containing fluoxetine as an internal standard. All the samples were centrifuged at 10000 rpm for 10 minutes at 4° C.

[3] = tested on: sAPPα; test: Estimation of cortical sAPPα levels in rat brain (ELISA); format: in vivo, Male Wistar rats; conditions: i.p.; for sAPPα levels: cortex, 60 minutes after treatment, mean ± SEM (n = 5/group); for Inference: cortical sAPPα levels, 1.0-10.0 mg/kg
Experimental: Estimation of Cortical sAPPα Levels in Rat Brain
Male Wistar rats (250±45 grams) were randomly divided into different treatment groups (n=5 per group). Control group of rats were administered with intraperitoneal (i.p.) injection of vehicle (99.75% of 0.25% hydroxyethylcellulose HHX+0.25% tween 80 for examples 8 and 22; 5% Pharmasolve+45% propylene glycol+50% polyethylene glycol-400 for example 1). Rats in treatment groups were allocated to one dose of test compound and administered with a single intraperitoneal injection of test compound (dose volume of 2 mL/kg). Rats were sacrificed by cervical dislocation at 60 minutes after treatment. Brains were quickly isolated and the cortex was dissected out at −20° C. The cortex was immediately kept on a dry ice and weighed before being stored at −80° C. until quantification of sAPPα using Enzyme-linked immunosorbent assay (ELISA).
• 1. Protease inhibitor cocktail tablets (complete mini, Make-Roche; 1 tablet for 8 mL) were added to the Tris Buffer Saline (TBS) prior to using the buffer for tissue processing. • 2. Cortical tissues were thawed and homogenized in five volumes of TBS and the solution was centrifuged at 15,000 rpm at 4° C. for 90 minutes. • 3. The supernatant was discarded and homogenized in five volumes of TBS. Samples were centrifuged at 15,000 rpm at 4° C. for 30 minutes. • 4. Supernatant was discarded and precipitate was sonicated in ten volumes of 50 mM Tris buffer (pH: 7.6) containing 6 M of Guanidine-HCl. Sonication was repeated four times with duration of five seconds every time. • 5. Resulting mixture was incubated at the room temperature for 30 minutes and centrifuged at 15,000 rpm at 4° C. for 30 minutes. Supernatant was diluted 100 times with EIA buffer prior to addition in the pre-coated ELISA plates. Measurement of sAPPα by ELISA Kit:
To investigate the role of an acute treatment of test compound on sAPPα levels, the expression of this protein was measured in samples obtained from brain homogenates of treated and untreated rats by employing ELISA assay. The entire procedure was followed as described in the ELISA kit manual (Mouse/Rat sAPPα (highly sensitive) assay kit, Catalog Number: JP27419, Immuno-Biological Laboratories Co. Ltd, Hamburg, Germany).
Statistical analyses were performed using the Graph Pad Prism (Version 4). Results are expressed as Mean±SEM levels of sAPPα expressed as percentage of control values obtained from rats treated with vehicle. Statistical significance after treatment was assessed using One-Way ANOVA followed by Dunnett's post test and the significance level was set below p value less than 0.05 and the results are tabulated in table 7.

[4] = pH 7.4, Dog liver microsomes 0.5 mg/mL, n = 3, read-out: Fu Microsomes
[5] = pH 7.4, Dog plasma, 37° C., n = 3, read-out: Fu Plasma
[6] = in presence of EC20 of acetylcholine, read-out: hM1 PAM EC50

Question: What does the source list for `Cl.O=C(N[C@H]1CCNC[C@H]1F)c1cn(Cc2ccnc(F)c2)c2c(F)ccc(F)c12` (single isomer, unassigned; isomer-i) [Example 22, Cis-N-(3-Fluoropiperidin-4-yl)-1-(2-fluoropyridin-4-ylmethyl)-4,7-difluoro-1H-indole-3-carboxamide hydrochloride (Isomer-I)]?
Answer: EC50 ([1]; hM1 PAM EC50, in presence of EC20 of acetylcholine): 1490 nM; fraction unbound at 6 h, 1 μM [2, 4]: 0.866 ± 0.034; fraction unbound at 6 h, 1 μM [2, 5]: 0.31 ± 0.01; sAPPα levels ([3]; 1.0 mg/kg): 143 ± 14 % of vehicle; sAPPα levels ([3]; 3.0 mg/kg): 164 ± 12 % of vehicle; sAPPα levels ([3]; 10.0 mg/kg): 176 ± 10 % of vehicle; Inference [3]: Active

Question: For `Cn1cc(Cn2cc(C(=O)N[C@H]3CCCC[C@@H]3O)c3c(F)cccc32)cn1` [Example 1, N-[(1S,2S)-2-Hydroxycyclohexyl]-1-(1-methyl-1H-pyrazol-4-ylmethyl)-4-fluoro-1H-indole-3-carboxamide], which EC50 [1, 6] is on record?
Answer: Its EC50 is 1260 nM.

Question: What about the fraction unbound at 6 h, 1 μM [2, 4] of the same compound?
Answer: Its fraction unbound at 6 h, 1 μM is 0.982 ± 0.01.

Question: And the fraction unbound at 6 h, 1 μM [2, 5]?
Answer: Its fraction unbound at 6 h, 1 μM is 0.217 ± 0.21.

Question: And the sAPPα levels ([3]; 1.0 mg/kg)?
Answer: Its sAPPα levels is 155 ± 6 % of vehicle.

Question: What about the sAPPα levels ([3]; 3.0 mg/kg) of the same compound?
Answer: The sAPPα levels was 153 ± 7 % of vehicle.

Question: And the sAPPα levels ([3]; 10.0 mg/kg)?
Answer: The sAPPα levels was 142 ± 6 % of vehicle.

Question: What about the Inference [3] of the same compound?
Answer: Its Inference is “Active”.

Question: What does the source list for `O=C(N[C@H]1CCCC[C@@H]1O)c1cn(Cc2ccnc(Cl)c2)c2cccc(F)c12` [Example 2, N-[(1S,2S)-2-Hydroxycyclohexyl]-1-(2-chloropyridin-4-ylmethyl)-4-fluoro-1H-indole-3-carboxamide]?
Answer: EC50 [1, 6]: 681 nM; fraction unbound at 6 h, 1 μM [2, 4]: 0.576 ± 0.079; fraction unbound at 6 h, 1 μM [2, 5]: 0.087 ± 0.008

Question: What does the source list for `Cn1cc(Cn2cc(C(=O)N[C@H]3CCCC[C@@H]3O)c3c(F)ccc(F)c32)cn1` [Example 5, N-[(1S,2S)-2-Hydroxycyclohexyl]-1-(1-methyl-1H-pyrazol-4-ylmethyl)-4,7-difluoro-1H-indole-3-carboxamide]?
Answer: fraction unbound at 6 h, 1 μM [2, 4]: 0.746 ± 0.004; fraction unbound at 6 h, 1 μM [2, 5]: 0.163 ± 0.02

Question: What does the source list for `O=C(N[C@H]1CCCC[C@@H]1O)c1cn(Cc2ccnc(F)c2)c2cccc(F)c12` [Example 7, N-[(1S,2S)-2-Hydroxycyclohexyl]-1-(2-fluoropyridin-4-ylmethyl)-4-fluoro-1H-indole-3-carboxamide]?
Answer: EC50 [1, 6]: 1360 nM; fraction unbound at 6 h, 1 μM [2, 4]: 0.6 ± 0.03; fraction unbound at 6 h, 1 μM [2, 5]: 0.2 ± 0.01

Question: Which results are given for `O=C(N[C@H]1CCCC[C@@H]1O)c1cn(Cc2ccnc(F)c2)c2c(F)ccc(F)c12` [Example 8, N-[(1S,2S)-2-Hydroxycyclohexyl]-1-(2-fluoropyridin-4-ylmethyl)-4,7-difluoro-1H-indole-3-carboxamide]?
Answer: EC50 [1, 6]: 192 nM; fraction unbound at 6 h, 1 μM [2, 4]: 0.679 ± 0.066; fraction unbound at 6 h, 1 μM [2, 5]: 0.064 ± 0.01; sAPPα levels ([3]; 1.0 mg/kg): 120 ± 17 % of vehicle; sAPPα levels ([3]; 3.0 mg/kg): 137 ± 14 % of vehicle; sAPPα levels ([3]; 10.0 mg/kg): 173 ± 10 % of vehicle; Inference [3]: Active
